Assay results: US12239711B2, “Cereblon ligands and bifunctional compounds comprising the same” (Arvinas Operations, Inc., priority 2014, dated 2025)

Molecular target: T1, BRD4 (Homo sapiens, UniProt O60885)
T1 construct: 22Rv-1 or VCaP cells were purchased from ATCC and cultured in Dulbecco's Modified Eagle's Medium; host or cells: 22Rv-1 or VCaP cells
Test: BRD4 Western protocol in 22Rv-1 or VCaP cells
Type: cell-based
Details: 16 hours, western blot
Procedure: 7. BRD4 Western Protocol for Table 8
22Rv-1 or VCaP cells were purchased from ATCC and cultured in Dulbecco's Modified Eagle's Medium (ATCC), supplemented with 10% FBS (ATCC) and Penicillin/Streptomycin (Life Technologies). DMSO control and compound treatments (0.003 μM, 0.01 μM, 0.03 μM and 0.1 μM) were performed in 12-well plates for 16 hours. Cells were harvested, and lysed in RIPA buffer (50 mM Tris pH8, 150 mM NaCl, 1% Tx-100, 0.1% SDS, 0.5% sodium deoxycholate) supplemented with protease and phosphatase inhibitors. Lysates were clarified at 16,000 g for 10 minutes, and protein concentration was determined. Equal amount of protein (20 μg) was subjected to SDS-PAGE analysis and followed by immunoblotting according to standard protocols. The antibodies used were BRD4 (Cell Signaling #13440), and Actin (Sigma #5441). Detection reagents were Clarity Western ECL substrate (Bio-rad #170-5060).

DC50: 10 to 100 nM
Dmax: ≥ 75%
SMILES: Cc1sc2c(c1C)C(c1ccc(Cl)cc1)=N[C@@H](CC(=O)Nc1ccc(OCCOCCOCCOCCOc3ccc4c(=O)n(C5CCC(=O)NC5=O)c(C)nc4c3)cc1)c1nnc(C)n1-2 (stereo partly drawn) [compound 45, 2-((S)-4-(4-chlorophenyl)-2,3,9-trimethyl-6H-thieno[3,2-f][1,2,4]triazolo[4,3-a][1,4]diazepin-6-yl)-N-(4-(2-(2-(2-(2-((3-(2,6-dioxopiperidin-3-yl)-2-methyl-4-oxo-3,4-dihydroquinazolin-7-yl)oxy)ethoxy)ethoxy)ethoxy)ethoxy)phenyl)acetamide]
